Reference: patent publication US8217035B2, “Pyrimidine derivatives used as PI-3-kinase inhibitors” (Novartis AG, priority 2006, dated 2012)

The molecules below were run on A2780 ovarian cancer cells (assay: Cellular proliferation in A2780 cells, Cell Titer Glo (Biological Method 4)). Details: Homo sapiens; ovarian cancer cell line A2780.
Type: cell-based
Summary of the method: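 A2780 cells seeded at 1,000/well in DMEM with 10% FBS, at least 2 h before compound, then exposed 72 h at 37 °C, 5% CO2. Viable cells measured by Cell Titer Glo luminescence; EC50 calculated from duplicate conditions.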

| Structure (SMILES) | EC50 |
| --- | --- |
| COc1cccc2ncc(Nc3cc(-c4cnc(N)nc4C(F)(F)F)nc(N4CCOCC4)n3)cc12 [Compound 54] | < 1000 nM |
| Nc1cc(C(F)(F)F)c(-c2cc(-c3nccs3)nc(N3CCOCC3)n2)cn1 [Compound 138] | < 10000 nM |
| COc1cc(Nc2cc(-c3cnc(N)cc3C(F)(F)F)nc(N3CCOCC3)n2)ccc1OC1CCN(C(C)C)CC1 [Compound 553] | < 1000 nM |
| COC(=O)N1CCC(Oc2cc(-c3cnc(N)nc3N)nc(N3CCOCC3)n2)CC1 [Compound 81] | < 1000 nM |
| Nc1cc(C(F)(F)F)c(-c2cc(O[C@@H]3CCOC3)nc(N3CCOCC3)n2)cn1 [Compound 25] | < 10000 nM |
| CS(=O)(=O)Nc1ncccc1-c1cc(-c2cnc(N)nc2C(F)(F)F)nc(N2CCOCC2)n1 [Compound 69] | < 1000 nM |
| Nc1ccc(-c2cc(Nc3ccncc3)nc(N3CCOCC3)n2)cn1 [Compound 184] | < 1000 nM |
| CC(C)(C)OC(=O)N1CCC(Oc2cc(-c3cnc(N)nc3C(F)(F)F)nc(N3CCOCC3)n2)CC1 [Compound 27] | < 1000 nM |
| N#Cc1cnccc1Nc1cc(-c2ccc(N)nc2)nc(N2CCOCC2)n1 [Compound 191] | < 10000 nM |
| Nc1cc(C(F)(F)F)c(-c2cc(OC3CCN(C(=O)c4ccccc4)CC3)nc(N3CCOCC3)n2)cn1 [Compound 83] | < 10000 nM |
| Nc1cc(C(F)(F)F)c(-c2cc(OC3CCOCC3)nc(N3CCOCC3)n2)cn1 [Compound 24] | < 1000 nM |
| Nc1ncc(-c2cc(OC3CCN(C(=O)OCc4ccccc4)CC3)nc(N3CCOCC3)n2)c(=O)[nH]1 [Compound 34] | < 1000 nM |
| CS(=O)(=O)c1cccc(-c2cc(-c3cnc(N)[nH]c3=O)nc(N3CCOCC3)n2)c1 [Compound 105] | < 1000 nM |
| Nc1cc(F)c(-c2cc(Nc3cnc4ccccc4c3)nc(N3CCOCC3)n2)cn1 [Compound 4] | < 1000 nM |
| Nc1ccc(-c2cc(Nc3ccncc3C(F)(F)F)nc(N3CCOCC3)n2)cn1 [Compound 142] | < 1000 nM |
| CS(=O)(=O)c1cccc(Nc2cc(-c3ccc(N)nc3)nc(N3CCOCC3)n2)c1 [Compound 139] | < 10000 nM |
| NC(=O)c1ccc(Nc2cc(-c3ccc(N)nc3)nc(N3CCOCC3)n2)cc1 [Compound 197] | < 10000 nM |
| CS(=O)(=O)c1ccc2cc(Nc3cc(-c4ccc(N)nc4)nc(N4CCOCC4)n3)cnc2c1 [Compound 149] | < 10000 nM |
| CS(=O)(=O)c1ccc(Nc2cc(-c3cnc(N)cc3C(F)(F)F)nc(N3CCOCC3)n2)cn1 [Compound 128] | < 10000 nM |
| CC(=O)N1CCC(Oc2cc(-c3cnc(N)nc3C(F)(F)F)nc(N3CCOCC3)n2)CC1 [Compound 119] | < 1000 nM |
| Cc1c(Nc2ccc(OC3CCN(C)CC3)nc2)nc(N2CCOCC2)nc1-c1cnc(N)nc1 [Compound 42] | < 1000 nM |

Same assay, conditions: Homo sapiens; ovarian cancer cell line A2780, Biological Method 4

| Structure (SMILES) | EC50 |
| --- | --- |
| CC(C)Oc1ncccc1Nc1cc(-c2cnc(N)cc2C(F)(F)F)nc(N2CCOCC2)n1 [Compound 204] | < 25000 nM |
| Cc1cc(N)ncc1-c1cc(Nc2cnc3ccccc3c2)nc(N2CCOCC2)n1 [Compound 201] | < 1000 nM |
| CS(=O)(=O)c1ccc(Nc2cc(-c3cnc(N)[nH]c3=O)nc(N3CCOCC3)n2)cn1 [Compound 208] | < 25000 nM |
| Cc1c(Nc2ccc(OC(CO)CO)nc2)nc(N2CCOCC2)nc1-c1cnc(N)nc1 [Compound 212] | < 25000 nM |
| N#Cc1cc(-c2cnc(N)cc2C(F)(F)F)nc(N2CCOCC2)n1 [Compound 209] | < 10000 nM |

These molecules were tested on pSer473 Akt in A2780 cells (assay: pSer473 Akt assay to monitor PI3K pathway in A2780 cells (Biological Method 2, MSD)). Details: Homo sapiens, A2780; inhibition of Akt phosphorylation.
Type: cell-based
Summary of the method: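 A2780 ovarian cancer cells in DMEM/10% FBS were treated with compound for 1 h at 37 °C, then lysed. pSer473-Akt and total Akt were measured by MSD electrochemiluminescence immunoassay. The pSer473/total Akt ratio gave % inhibition versus DMSO, from which EC50 was derived.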

| Structure (SMILES) | EC50 |
| --- | --- |
| COc1cc(Nc2cc(-c3cnc(N)cc3C(F)(F)F)nc(N3CCOCC3)n2)ccc1OC1CCN(C(C)C)CC1 [Compound 553] | < 1000 nM |

Same assay, conditions: Homo sapiens, A2780; inhibition of Akt phosphorylation, Biological Method 2

| Structure (SMILES) | EC50 |
| --- | --- |
| CC(C)Oc1ncccc1Nc1cc(-c2cnc(N)cc2C(F)(F)F)nc(N2CCOCC2)n1 [Compound 204] | < 1000 nM |
| Cc1cc(N)ncc1-c1cc(Nc2cnc3ccccc3c2)nc(N2CCOCC2)n1 [Compound 201] | < 1000 nM |
| CS(=O)(=O)c1ccc(Nc2cc(-c3cnc(N)[nH]c3=O)nc(N3CCOCC3)n2)cn1 [Compound 208] | < 10000 nM |
| Cc1c(Nc2ccc(OC(CO)CO)nc2)nc(N2CCOCC2)nc1-c1cnc(N)nc1 [Compound 212] | < 10000 nM |
| N#Cc1cc(-c2cnc(N)cc2C(F)(F)F)nc(N2CCOCC2)n1 [Compound 209] | < 10000 nM |

Same assay, conditions: Homo sapiens; inhibition of Akt phosphorylation, A2780 cells

| Structure (SMILES) | EC50 |
| --- | --- |
| COc1cccc2ncc(Nc3cc(-c4cnc(N)nc4C(F)(F)F)nc(N4CCOCC4)n3)cc12 [Compound 54] | < 1000 nM |
| Nc1cc(C(F)(F)F)c(-c2cc(-c3nccs3)nc(N3CCOCC3)n2)cn1 [Compound 138] | < 1000 nM |
| COC(=O)N1CCC(Oc2cc(-c3cnc(N)nc3N)nc(N3CCOCC3)n2)CC1 [Compound 81] | < 1000 nM |
| Nc1cc(C(F)(F)F)c(-c2cc(O[C@@H]3CCOC3)nc(N3CCOCC3)n2)cn1 [Compound 25] | < 1000 nM |
| CS(=O)(=O)Nc1ncccc1-c1cc(-c2cnc(N)nc2C(F)(F)F)nc(N2CCOCC2)n1 [Compound 69] | < 1000 nM |
| Nc1ccc(-c2cc(Nc3ccncc3)nc(N3CCOCC3)n2)cn1 [Compound 184] | < 1000 nM |
| CC(C)(C)OC(=O)N1CCC(Oc2cc(-c3cnc(N)nc3C(F)(F)F)nc(N3CCOCC3)n2)CC1 [Compound 27] | < 1000 nM |
| N#Cc1cnccc1Nc1cc(-c2ccc(N)nc2)nc(N2CCOCC2)n1 [Compound 191] | < 1000 nM |
| Nc1cc(C(F)(F)F)c(-c2cc(OC3CCN(C(=O)c4ccccc4)CC3)nc(N3CCOCC3)n2)cn1 [Compound 83] | < 1000 nM |
| Nc1cc(C(F)(F)F)c(-c2cc(OC3CCOCC3)nc(N3CCOCC3)n2)cn1 [Compound 24] | < 1000 nM |
| Nc1ncc(-c2cc(OC3CCN(C(=O)OCc4ccccc4)CC3)nc(N3CCOCC3)n2)c(=O)[nH]1 [Compound 34] | < 1000 nM |
| CS(=O)(=O)c1cccc(-c2cc(-c3cnc(N)[nH]c3=O)nc(N3CCOCC3)n2)c1 [Compound 105] | < 1000 nM |
| Nc1cc(F)c(-c2cc(Nc3cnc4ccccc4c3)nc(N3CCOCC3)n2)cn1 [Compound 4] | < 1000 nM |
| Nc1ccc(-c2cc(Nc3ccncc3C(F)(F)F)nc(N3CCOCC3)n2)cn1 [Compound 142] | < 1000 nM |
| CS(=O)(=O)c1cccc(Nc2cc(-c3ccc(N)nc3)nc(N3CCOCC3)n2)c1 [Compound 139] | < 1000 nM |
| NC(=O)c1ccc(Nc2cc(-c3ccc(N)nc3)nc(N3CCOCC3)n2)cc1 [Compound 197] | < 1000 nM |
| CS(=O)(=O)c1ccc2cc(Nc3cc(-c4ccc(N)nc4)nc(N4CCOCC4)n3)cnc2c1 [Compound 149] | < 1000 nM |
| CS(=O)(=O)c1ccc(Nc2cc(-c3cnc(N)cc3C(F)(F)F)nc(N3CCOCC3)n2)cn1 [Compound 128] | < 1000 nM |
| CC(=O)N1CCC(Oc2cc(-c3cnc(N)nc3C(F)(F)F)nc(N3CCOCC3)n2)CC1 [Compound 119] | < 1000 nM |
| Cc1c(Nc2ccc(OC3CCN(C)CC3)nc2)nc(N2CCOCC2)nc1-c1cnc(N)nc1 [Compound 42] | < 1000 nM |

What follows are molecules tested against PI3 kinase alpha (Homo sapiens, UniProt P42336) (assay: PI3K ATP depletion assay (Biological Method 1, Assay 3; KinaseGlo luminescence)). Details: ATP depletion assay, Biological Method 1; read-out: PI3 Kinase Alpha, IC50.
Type: biochemical
Summary of the method: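 Compound in DMSO was mixed with 10 nM PI3 kinase and 5 μg/mL phosphatidylinositol, and the reaction was started with 2 μM ATP. It ran to about 50% ATP depletion and was stopped with KinaseGlo.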

PI3 kinase alpha, sequence (P42336 whole entry): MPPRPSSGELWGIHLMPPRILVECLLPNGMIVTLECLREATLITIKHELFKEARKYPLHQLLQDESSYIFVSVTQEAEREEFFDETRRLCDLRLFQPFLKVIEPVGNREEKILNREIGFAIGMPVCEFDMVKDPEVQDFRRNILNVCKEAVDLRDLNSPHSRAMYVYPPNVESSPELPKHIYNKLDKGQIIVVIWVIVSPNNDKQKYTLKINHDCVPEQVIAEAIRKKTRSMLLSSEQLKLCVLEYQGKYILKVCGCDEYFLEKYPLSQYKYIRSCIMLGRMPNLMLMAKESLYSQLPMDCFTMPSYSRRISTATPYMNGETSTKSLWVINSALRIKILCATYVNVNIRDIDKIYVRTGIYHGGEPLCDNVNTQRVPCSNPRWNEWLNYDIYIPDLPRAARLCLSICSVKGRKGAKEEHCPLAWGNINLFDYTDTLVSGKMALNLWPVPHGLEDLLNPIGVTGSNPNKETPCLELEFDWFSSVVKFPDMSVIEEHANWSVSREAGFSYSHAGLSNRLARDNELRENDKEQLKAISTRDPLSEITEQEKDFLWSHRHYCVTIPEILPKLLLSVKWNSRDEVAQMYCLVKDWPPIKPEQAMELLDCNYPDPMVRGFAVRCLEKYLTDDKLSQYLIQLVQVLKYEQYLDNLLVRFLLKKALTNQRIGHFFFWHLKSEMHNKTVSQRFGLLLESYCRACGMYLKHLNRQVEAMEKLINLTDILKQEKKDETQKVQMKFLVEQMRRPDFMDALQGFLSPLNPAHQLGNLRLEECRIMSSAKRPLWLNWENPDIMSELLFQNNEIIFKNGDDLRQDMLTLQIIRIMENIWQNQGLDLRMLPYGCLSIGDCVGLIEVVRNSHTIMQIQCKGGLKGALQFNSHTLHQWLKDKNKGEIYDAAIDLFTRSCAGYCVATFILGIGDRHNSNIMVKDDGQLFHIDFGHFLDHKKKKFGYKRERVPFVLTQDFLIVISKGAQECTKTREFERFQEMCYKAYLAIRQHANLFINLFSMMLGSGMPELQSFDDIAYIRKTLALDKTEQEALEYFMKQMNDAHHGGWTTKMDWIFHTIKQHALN
PI3 kinase alpha, sequence (P27986 whole entry partner): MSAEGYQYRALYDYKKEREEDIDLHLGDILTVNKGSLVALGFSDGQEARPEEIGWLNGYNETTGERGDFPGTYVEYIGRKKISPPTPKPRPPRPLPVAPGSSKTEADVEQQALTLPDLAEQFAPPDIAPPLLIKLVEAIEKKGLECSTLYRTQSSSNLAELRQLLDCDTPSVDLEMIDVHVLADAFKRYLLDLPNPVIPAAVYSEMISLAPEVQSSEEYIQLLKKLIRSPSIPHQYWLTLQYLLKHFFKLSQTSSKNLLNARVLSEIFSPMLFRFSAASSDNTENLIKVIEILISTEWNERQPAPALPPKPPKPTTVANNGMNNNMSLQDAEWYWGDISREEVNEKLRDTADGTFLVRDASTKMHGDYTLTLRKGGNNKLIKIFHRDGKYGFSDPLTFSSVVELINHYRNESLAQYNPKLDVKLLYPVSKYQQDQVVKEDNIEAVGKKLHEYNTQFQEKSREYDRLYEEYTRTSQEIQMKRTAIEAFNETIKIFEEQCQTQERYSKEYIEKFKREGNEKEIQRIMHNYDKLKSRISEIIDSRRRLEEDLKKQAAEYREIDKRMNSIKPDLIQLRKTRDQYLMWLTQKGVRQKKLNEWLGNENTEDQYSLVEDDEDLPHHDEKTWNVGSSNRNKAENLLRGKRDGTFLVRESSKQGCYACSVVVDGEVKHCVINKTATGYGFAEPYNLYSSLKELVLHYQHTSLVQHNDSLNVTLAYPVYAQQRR

| Structure (SMILES) | IC50 |
| --- | --- |
| CC(C)Oc1ncccc1Nc1cc(-c2cnc(N)cc2C(F)(F)F)nc(N2CCOCC2)n1 [Compound 204] | < 1000 nM |
| Cc1cc(N)ncc1-c1cc(Nc2cnc3ccccc3c2)nc(N2CCOCC2)n1 [Compound 201] | < 1000 nM |
| CS(=O)(=O)c1ccc(Nc2cc(-c3cnc(N)[nH]c3=O)nc(N3CCOCC3)n2)cn1 [Compound 208] | < 1000 nM |
| Cc1c(Nc2ccc(OC(CO)CO)nc2)nc(N2CCOCC2)nc1-c1cnc(N)nc1 [Compound 212] | < 1000 nM |
| N#Cc1cc(-c2cnc(N)cc2C(F)(F)F)nc(N2CCOCC2)n1 [Compound 209] | < 1000 nM |

Same assay, conditions: ATP depletion assay; read-out: PI3 Kinase Alpha, IC50

| Structure (SMILES) | IC50 |
| --- | --- |
| COc1cccc2ncc(Nc3cc(-c4cnc(N)nc4C(F)(F)F)nc(N4CCOCC4)n3)cc12 [Compound 54] | < 1000 nM |
| Nc1cc(C(F)(F)F)c(-c2cc(-c3nccs3)nc(N3CCOCC3)n2)cn1 [Compound 138] | < 1000 nM |
| COc1cc(Nc2cc(-c3cnc(N)cc3C(F)(F)F)nc(N3CCOCC3)n2)ccc1OC1CCN(C(C)C)CC1 [Compound 553] | < 1000 nM |
| COC(=O)N1CCC(Oc2cc(-c3cnc(N)nc3N)nc(N3CCOCC3)n2)CC1 [Compound 81] | < 1000 nM |
| Nc1cc(C(F)(F)F)c(-c2cc(O[C@@H]3CCOC3)nc(N3CCOCC3)n2)cn1 [Compound 25] | < 1000 nM |
| CS(=O)(=O)Nc1ncccc1-c1cc(-c2cnc(N)nc2C(F)(F)F)nc(N2CCOCC2)n1 [Compound 69] | < 1000 nM |
| Nc1ccc(-c2cc(Nc3ccncc3)nc(N3CCOCC3)n2)cn1 [Compound 184] | < 1000 nM |
| CC(C)(C)OC(=O)N1CCC(Oc2cc(-c3cnc(N)nc3C(F)(F)F)nc(N3CCOCC3)n2)CC1 [Compound 27] | < 1000 nM |
| N#Cc1cnccc1Nc1cc(-c2ccc(N)nc2)nc(N2CCOCC2)n1 [Compound 191] | < 1000 nM |
| Nc1cc(C(F)(F)F)c(-c2cc(OC3CCN(C(=O)c4ccccc4)CC3)nc(N3CCOCC3)n2)cn1 [Compound 83] | < 1000 nM |
| Nc1cc(C(F)(F)F)c(-c2cc(OC3CCOCC3)nc(N3CCOCC3)n2)cn1 [Compound 24] | < 1000 nM |
| Nc1ncc(-c2cc(OC3CCN(C(=O)OCc4ccccc4)CC3)nc(N3CCOCC3)n2)c(=O)[nH]1 [Compound 34] | < 1000 nM |
| CS(=O)(=O)c1cccc(-c2cc(-c3cnc(N)[nH]c3=O)nc(N3CCOCC3)n2)c1 [Compound 105] | < 1000 nM |
| Nc1cc(F)c(-c2cc(Nc3cnc4ccccc4c3)nc(N3CCOCC3)n2)cn1 [Compound 4] | < 1000 nM |
| Nc1ccc(-c2cc(Nc3ccncc3C(F)(F)F)nc(N3CCOCC3)n2)cn1 [Compound 142] | < 1000 nM |
| CS(=O)(=O)c1cccc(Nc2cc(-c3ccc(N)nc3)nc(N3CCOCC3)n2)c1 [Compound 139] | < 1000 nM |
| NC(=O)c1ccc(Nc2cc(-c3ccc(N)nc3)nc(N3CCOCC3)n2)cc1 [Compound 197] | < 1000 nM |
| CS(=O)(=O)c1ccc2cc(Nc3cc(-c4ccc(N)nc4)nc(N4CCOCC4)n3)cnc2c1 [Compound 149] | < 1000 nM |
| CS(=O)(=O)c1ccc(Nc2cc(-c3cnc(N)cc3C(F)(F)F)nc(N3CCOCC3)n2)cn1 [Compound 128] | < 1000 nM |
| CC(=O)N1CCC(Oc2cc(-c3cnc(N)nc3C(F)(F)F)nc(N3CCOCC3)n2)CC1 [Compound 119] | < 1000 nM |
| Cc1c(Nc2ccc(OC3CCN(C)CC3)nc2)nc(N2CCOCC2)nc1-c1cnc(N)nc1 [Compound 42] | < 1000 nM |
